Where two headings read alike, the source gives them in different places.
Tests used:
[1] = C57BL/6 DIO mice; cited from earlier work
FADS1 [2] = target: T1, FADS1 (Mus musculus, UniProt Q920L1); assay: In vivo FADS1 activity measurement using the liver (13C5-DGLA to 13C5-AA conversion); conditions: DIO mice, single oral dose 30 mg/kg, 24 hours after dosing; for inhibition at 30 mg/kg: mouse, read-out: Liver Avg % Inhibition
T1 construct: Liver from ^13C5-DGLA dosed DIO mice was collected for pharmacodynamic (PD) analysis; from tissue; host or cells: living DIO C57Bl/6 mice; 13C5-DGLA to 13C5-AA conversion read in liver (A4) or blood plasma (A5)
T1 sequence (Q920L1 1-447): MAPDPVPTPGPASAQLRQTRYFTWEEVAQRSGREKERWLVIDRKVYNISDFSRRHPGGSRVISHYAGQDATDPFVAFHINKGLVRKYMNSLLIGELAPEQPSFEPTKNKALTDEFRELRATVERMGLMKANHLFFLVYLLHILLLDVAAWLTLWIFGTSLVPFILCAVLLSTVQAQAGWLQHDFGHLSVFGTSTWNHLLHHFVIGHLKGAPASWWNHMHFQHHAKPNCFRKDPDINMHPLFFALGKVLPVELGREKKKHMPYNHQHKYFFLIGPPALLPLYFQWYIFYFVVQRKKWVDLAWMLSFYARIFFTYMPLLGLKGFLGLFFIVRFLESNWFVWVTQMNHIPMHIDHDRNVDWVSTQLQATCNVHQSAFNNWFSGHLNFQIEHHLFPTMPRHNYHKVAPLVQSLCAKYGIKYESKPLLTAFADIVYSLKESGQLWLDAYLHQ
Method: Mice were then dosed by intraperitoneal injection with a solution comprising of a mixture of 0.1 ml solution of ^13C5-DGLA (2 mM in 18.42 mM Na2CO3 buffer). Necropsy were performed at 30 minutes post ^13C5-DGLA dosing. Liver from ^13C5-DGLA dosed DIO mice was collected for pharmacodynamic (PD) analysis and EDTA plasma was collected for compound exposure determination. For PD analysis, 150 mg of frozen liver tissue were premixed with ALA-D14 as an internal standard. Liver samples were homogenized and extracted twice with chloroform/methanol (2:1) solution. The organic phases for the two extractions were pooled and evaporated to dryness under nitrogen gas. The liver extract was resuspended in 200 μl 2N NaOH and saponified at 65° C. for 1 hour. After cooling to room temperature, 100 μl of formic acid was added and the mixture was subjected to two consecutive extractions with a chloroform:methanol (2:1) solution. The pooled organic phases were evaporated to dryness under nitrogen gas and resuspended in a solution containing acetonitrile and methanol at a ratio of 1:1. The extracts were then analyzed by LC/MS/MS for the following analytes: ^13C5-DGLA, ^13C5-AA, with ALA-d14 as the internal standard. The sample (20 μl) was injected onto a Poroshell 120 EC-C18 3.0×50 mm, 1.9 μm id column (Agilent, Santa Clara, CA). The analyte peak areas were quantified using the Analyst software (SCIEX, Framingham, […]). The residual in vivo FADS1 activity was calculated by taking the percent of substrate to product conversion normalized to the vehicle group to determine the percent of control (POC) and the percent inhibition relative to control (vehicle).
To determine the degree of FADS1 inhibition, the in vivo FADS1 activity as the percent of conversion calculated using the following equation: […]
The data were then normalized to the vehicle group to determine the percent of inhibition relative to control (vehicle) by the following equation: […]
To calculate the in vivo potency, dose response graphs were generated by plotting the plasma concentration of the test compound determined from the PK analysis on the abscissa, against the percent of control (POC, relative to vehicle) of the FADS1 activity for each mouse. The data points were then fitted by using the log(inhibitor) vs response nonlinear regression algorithm using GraphPad Prism (version 8.4.3, San Diego CA) to calculate the in vivo IC50 (total).
Free (unbound) IC50 and IC90 values were calculated by first calculating the unbound compound concentration in the plasma by multiplying the plasma concentration of test compound with the fraction unbound (fu) value in mouse plasma determined in the plasma protein binding study. A dose response curve was used to determine the unbound IC50 and IC90 by plotting the unbound plasma concentration of the compound on the abscissa, against the percent of control (POC, relative to vehicle) of FADS1 activity for each mouse. The data points were then fitted with a log (inhibitor) versus response nonlinear regression algorithm using GraphPad Prism (version 8.4.3, San Diego, CA) to calculate the in vivo IC50 (Free).

FADS1 [3] = target: T1, FADS1; assay: In vivo FADS1 activity measurement using blood plasma (13C5-DGLA to 13C5-AA conversion); conditions: for Plasma Avg % Conversion / inhibition at 30 mg/kg: DIO mice, single oral dose 30 mg/kg, 24 hours after dosing
Method: FADS1 activity in the presence of Compounds B-E was also measured using blood plasma (in addition to using the liver). The above procedures were perforned to measure the in vivo activity of FADS1 using the liver. The following general procedures were used to measure FADS1 activity using blood plasma. Diet-induced obese (DIO) mice that were on 12 weeks of high fat diet were used to determine the pharmacokinetic (PK) and pharmacodynamic (PD) properties of test compounds. To determine the target coverage at 24 hours after dosing with a test compound (e.g., Compounds B-E, shown below), mice were IP dosed with 0.1 ml solution of ^13C5-DGLA (2 mM in 18.42 mM Na2CO3 buffer). Necropsy were performed at 30 minutes post ^13C5-DGLA dosing. EDTA Plasma was collected for PK and PD analysis.
For PD analysis, 50 μl of plasma or standards (pooled untreated mouse plasma with ^13C5-DGLA and ^13C5-AA added at concentration of 4.57 nM to 10 uM) were mixed with 10 μl of 90% methanol and 10 μl of 50 μg/mL of ALA-D14 as an internal standard (100 μM alpha-linolenic acid-d14 (ALA-d14, Cayman Chemical)) in a 96 well plate. 490 μl of chloroform:methanol (2:1) were added to each well. Plates were plated on a shaker for 5 min prior to adding 66.5 μl water. The plates were shaken for another 5 minutes, followed by centrifugation at 2000 RPM for 5 minutes. The bottom organic layer was transferred to a clean 96 well plate. 333 ul of chloroform:methanol (2:1) were added to the to the remaining liquid phase in the original plate. After 5 min of shaking, the plate was centrifuged at 2000 RPM for 5 minutes. The bottom layer was collected and combined with the first bottom layer. The combined layers were evaporated to dryness under a constant stream of nitrogen gas. After the plate has been dried, 100 μl of 2N NaOH was added to the mixture for subsequent saponification at 65° C. for 1 hour. The samples were then cooled to room temperature and the mixture was then acidified with 50 μl of formic acid followed by two consecutive chloroform:methanol (2:1) extractions. 500 μl of Chloroform:methanol (2:1) was added and the mixture thoroughly mixed by shaking. The plate was then centrifuged at 2,000 rpm for 5 min. The bottom chloroform phase was transferred to a new 2 mL 96 well plate and the remaining aqueous layer was extracted with another 250 μl of chloroform:methanol (2:1). The organic extracts were combined, and the solvent was evaporated to dryness by placing the plate under nitrogen. Extracts were then dissolved in 200 μl of acetonitrile/methanol (1:1). The plate was placed on a shaker for 30 minutes to ensure thorough mixing and dissolution of the extracted fatty acids. The plate was then centrifuged at 2000 RPM for 5 minutes. 80 μl of the samples were transferred to a new 96 well polypropylene plate for analysis on a LC-MS/MS for the following analytes: ^13C5-DGLA, ^13C5-AA, with ALA-d14 as the internal standard. Briefly describing the LC-MS/MS method: 20 μl of sample was injected onto a Poroshell 120 EC-C18 3.0×50 mm, 1.9 μm id column. Mobile phases were 80% acetonitrile containing 5 mM ammonium acetate for mobile phase A and 99.5% acetonitrile containing 5 mM ammonium acetate for mobile phase B. The LC gradient was a 3 min long method at a flow rate of 0.4 mL/minute consisting of 45% B at 0 to 0.5 min, followed by a 45% B to 100% B from 0.5 to 2.0 min; the system was then maintained at 100% B from 2.0 min to 2.5 min and returned to 45% B at 2.6 min and maintained until end of the method. The analyte peak areas were quantified by using the SCIEX Analyst software. To determine the degree of FADS1 inhibition, the in vivo FADS1 activity, POC, percent of inhibition, and in vivo IC50 values are calculated as described above for liver FADS1 activity measurement.

[4] = HFD-fed DIO C57BL/6J mice; cited from earlier work

SMILES | Liver Avg % Conversion (FADS1 [2]) | inhibition at 30 mg/kg (FADS1 [2]) | Plasma Avg % Conversion (FADS1 [3]) | inhibition at 30 mg/kg (FADS1 [3]; mouse) | further results
Cc1c(C(=O)NN2CCCCC2)nn(-c2ccc(Cl)cc2Cl)c1-c1ccc(Cl)cc1 [rimonabant] |  |  |  |  | adipose tissue inflammation [1]: reduced adipose tissue inflammation; body weight [1]: reduce body weight; physical activity [1]: increased physical activity only in the light cycle
COc1ccn2c(=O)c(-c3ccc(O[C@H](C)C#N)cc3)c(C(F)(F)F)nc2n1 [Compound E] | 78.7% | 5.8% | 58.1% | 3.7% | 
O=c1c(-c2ccc(OCC(F)(F)F)cc2)c(C(F)(F)F)nc2cc(CO)ccn12 [Compound D] | 34.5% | 58.7% | 25.1% | 58.3% | 
COc1ccc2c(c1)c(CC(=O)O)c(C)n2C(=O)c1ccc(Cl)cc1 [indomethacin] |  |  |  |  | body weight [4]: reduce body weight; insulin sensitivity [4]: improve insulin sensitivity
O=c1c(-c2cnn(CC(F)(F)C(F)(F)F)c2)c(C(F)(F)F)nc2cc(OCF)ccn12 [Compound F] |  |  |  |  | Free (unbound) in vivo IC95 (FADS1 [3]; blood plasma, unbound plasma concentration): 0.0164 µM; IC50 (FADS1 [3]; blood plasma, unbound plasma concentration, read-out: Free (unbound) in vivo IC50): 5.62 nM; IC90 (FADS1 [3]; mouse, blood plasma, unbound plasma concentration, read-out: Free (unbound) in vivo IC90): 12.4 nM
